According to the Kinase Knowledgebase extract (Sharma et al. 2016):

Legend:
Assay in all cases: Enzyme Assay
PIK3CD (Human) = PIK3CD (Human) (UniProt O00329)
PIK3CG (human) = PIK3CG (human) (UniProt P48736)
PIK3CB (Human) = PIK3CB (Human) (UniProt P42338)
PIK3CA (human) = PIK3CA (human) (UniProt P42336)
Chain of PIK3CA (human) (P42336 whole entry, looked up): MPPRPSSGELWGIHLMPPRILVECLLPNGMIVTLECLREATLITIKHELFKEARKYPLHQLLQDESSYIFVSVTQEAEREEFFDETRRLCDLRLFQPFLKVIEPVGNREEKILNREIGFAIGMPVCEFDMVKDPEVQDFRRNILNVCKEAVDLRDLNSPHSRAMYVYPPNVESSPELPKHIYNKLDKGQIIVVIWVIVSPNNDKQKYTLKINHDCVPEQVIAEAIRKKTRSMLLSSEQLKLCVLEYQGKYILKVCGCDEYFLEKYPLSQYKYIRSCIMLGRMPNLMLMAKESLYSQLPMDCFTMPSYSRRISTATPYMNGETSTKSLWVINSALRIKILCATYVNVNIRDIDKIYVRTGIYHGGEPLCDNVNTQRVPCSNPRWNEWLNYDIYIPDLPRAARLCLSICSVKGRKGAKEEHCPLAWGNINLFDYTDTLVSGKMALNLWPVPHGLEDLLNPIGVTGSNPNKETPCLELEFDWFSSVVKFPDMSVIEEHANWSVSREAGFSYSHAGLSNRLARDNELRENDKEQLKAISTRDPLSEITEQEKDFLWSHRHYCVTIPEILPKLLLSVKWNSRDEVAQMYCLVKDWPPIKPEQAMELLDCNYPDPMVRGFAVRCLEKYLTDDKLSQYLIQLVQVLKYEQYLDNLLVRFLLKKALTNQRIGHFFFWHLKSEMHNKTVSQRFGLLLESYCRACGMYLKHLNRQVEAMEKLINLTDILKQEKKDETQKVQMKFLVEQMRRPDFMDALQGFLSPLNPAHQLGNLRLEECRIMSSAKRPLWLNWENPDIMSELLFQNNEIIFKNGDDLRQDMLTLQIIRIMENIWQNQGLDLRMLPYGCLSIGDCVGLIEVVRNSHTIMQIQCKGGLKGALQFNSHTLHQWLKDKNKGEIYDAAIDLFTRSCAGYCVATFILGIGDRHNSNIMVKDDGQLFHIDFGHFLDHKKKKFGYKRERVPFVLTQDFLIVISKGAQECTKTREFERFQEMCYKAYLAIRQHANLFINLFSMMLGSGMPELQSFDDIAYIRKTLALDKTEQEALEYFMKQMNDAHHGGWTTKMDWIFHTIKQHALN

Chain of PIK3CG (human) (P48736 whole entry, looked up): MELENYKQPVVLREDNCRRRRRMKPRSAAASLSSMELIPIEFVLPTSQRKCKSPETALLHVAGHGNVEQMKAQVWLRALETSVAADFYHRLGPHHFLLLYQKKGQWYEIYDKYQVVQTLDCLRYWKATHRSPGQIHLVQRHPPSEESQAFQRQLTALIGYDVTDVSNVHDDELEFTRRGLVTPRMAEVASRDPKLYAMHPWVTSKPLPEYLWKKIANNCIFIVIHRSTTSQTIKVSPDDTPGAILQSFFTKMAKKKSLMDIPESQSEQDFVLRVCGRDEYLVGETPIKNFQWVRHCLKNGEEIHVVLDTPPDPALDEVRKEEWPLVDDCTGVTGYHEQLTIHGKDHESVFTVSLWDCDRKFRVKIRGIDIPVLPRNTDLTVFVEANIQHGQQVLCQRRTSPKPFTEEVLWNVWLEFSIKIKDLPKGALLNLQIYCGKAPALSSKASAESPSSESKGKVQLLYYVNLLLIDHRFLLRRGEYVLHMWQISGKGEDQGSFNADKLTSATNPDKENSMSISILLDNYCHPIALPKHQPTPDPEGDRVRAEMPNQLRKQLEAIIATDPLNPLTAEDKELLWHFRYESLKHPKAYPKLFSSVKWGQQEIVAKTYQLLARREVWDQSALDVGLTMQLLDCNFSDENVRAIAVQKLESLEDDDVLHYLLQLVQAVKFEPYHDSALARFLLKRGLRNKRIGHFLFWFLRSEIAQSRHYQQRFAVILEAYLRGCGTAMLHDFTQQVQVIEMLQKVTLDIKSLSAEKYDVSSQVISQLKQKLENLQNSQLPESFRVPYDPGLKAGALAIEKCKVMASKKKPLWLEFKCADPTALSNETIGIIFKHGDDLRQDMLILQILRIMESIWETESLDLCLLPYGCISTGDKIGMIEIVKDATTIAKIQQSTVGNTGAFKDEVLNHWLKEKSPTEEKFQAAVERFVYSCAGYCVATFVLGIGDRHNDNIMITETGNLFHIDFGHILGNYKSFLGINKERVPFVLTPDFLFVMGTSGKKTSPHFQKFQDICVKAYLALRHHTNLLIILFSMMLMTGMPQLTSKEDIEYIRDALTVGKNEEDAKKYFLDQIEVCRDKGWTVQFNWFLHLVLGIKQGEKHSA
Chain of PIK3CD (Human) (O00329 whole entry, looked up): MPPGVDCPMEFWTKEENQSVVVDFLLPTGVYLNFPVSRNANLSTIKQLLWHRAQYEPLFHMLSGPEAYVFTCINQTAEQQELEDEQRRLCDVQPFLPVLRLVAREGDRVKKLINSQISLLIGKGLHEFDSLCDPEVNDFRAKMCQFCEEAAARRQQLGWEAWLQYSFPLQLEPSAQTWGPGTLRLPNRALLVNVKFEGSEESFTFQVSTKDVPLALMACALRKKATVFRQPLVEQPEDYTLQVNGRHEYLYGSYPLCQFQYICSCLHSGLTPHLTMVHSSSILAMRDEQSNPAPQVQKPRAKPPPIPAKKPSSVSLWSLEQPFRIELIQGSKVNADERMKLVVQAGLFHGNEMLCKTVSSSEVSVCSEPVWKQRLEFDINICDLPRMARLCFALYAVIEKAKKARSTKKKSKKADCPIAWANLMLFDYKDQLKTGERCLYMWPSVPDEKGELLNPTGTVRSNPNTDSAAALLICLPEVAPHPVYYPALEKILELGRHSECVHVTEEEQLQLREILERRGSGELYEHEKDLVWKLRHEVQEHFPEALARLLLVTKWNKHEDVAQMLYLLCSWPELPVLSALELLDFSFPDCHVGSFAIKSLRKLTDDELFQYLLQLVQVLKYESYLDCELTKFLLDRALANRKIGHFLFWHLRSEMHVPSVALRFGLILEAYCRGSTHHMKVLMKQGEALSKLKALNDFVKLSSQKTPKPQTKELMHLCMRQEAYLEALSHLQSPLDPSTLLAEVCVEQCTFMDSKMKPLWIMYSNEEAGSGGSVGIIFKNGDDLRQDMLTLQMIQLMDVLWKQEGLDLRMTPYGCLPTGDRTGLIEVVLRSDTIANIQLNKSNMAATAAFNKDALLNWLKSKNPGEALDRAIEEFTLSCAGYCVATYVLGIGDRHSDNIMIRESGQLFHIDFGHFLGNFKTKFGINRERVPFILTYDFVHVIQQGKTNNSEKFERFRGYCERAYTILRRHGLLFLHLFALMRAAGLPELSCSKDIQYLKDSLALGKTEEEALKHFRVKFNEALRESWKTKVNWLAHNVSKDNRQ
Chain of PIK3CB (Human) (P42338 whole entry, looked up): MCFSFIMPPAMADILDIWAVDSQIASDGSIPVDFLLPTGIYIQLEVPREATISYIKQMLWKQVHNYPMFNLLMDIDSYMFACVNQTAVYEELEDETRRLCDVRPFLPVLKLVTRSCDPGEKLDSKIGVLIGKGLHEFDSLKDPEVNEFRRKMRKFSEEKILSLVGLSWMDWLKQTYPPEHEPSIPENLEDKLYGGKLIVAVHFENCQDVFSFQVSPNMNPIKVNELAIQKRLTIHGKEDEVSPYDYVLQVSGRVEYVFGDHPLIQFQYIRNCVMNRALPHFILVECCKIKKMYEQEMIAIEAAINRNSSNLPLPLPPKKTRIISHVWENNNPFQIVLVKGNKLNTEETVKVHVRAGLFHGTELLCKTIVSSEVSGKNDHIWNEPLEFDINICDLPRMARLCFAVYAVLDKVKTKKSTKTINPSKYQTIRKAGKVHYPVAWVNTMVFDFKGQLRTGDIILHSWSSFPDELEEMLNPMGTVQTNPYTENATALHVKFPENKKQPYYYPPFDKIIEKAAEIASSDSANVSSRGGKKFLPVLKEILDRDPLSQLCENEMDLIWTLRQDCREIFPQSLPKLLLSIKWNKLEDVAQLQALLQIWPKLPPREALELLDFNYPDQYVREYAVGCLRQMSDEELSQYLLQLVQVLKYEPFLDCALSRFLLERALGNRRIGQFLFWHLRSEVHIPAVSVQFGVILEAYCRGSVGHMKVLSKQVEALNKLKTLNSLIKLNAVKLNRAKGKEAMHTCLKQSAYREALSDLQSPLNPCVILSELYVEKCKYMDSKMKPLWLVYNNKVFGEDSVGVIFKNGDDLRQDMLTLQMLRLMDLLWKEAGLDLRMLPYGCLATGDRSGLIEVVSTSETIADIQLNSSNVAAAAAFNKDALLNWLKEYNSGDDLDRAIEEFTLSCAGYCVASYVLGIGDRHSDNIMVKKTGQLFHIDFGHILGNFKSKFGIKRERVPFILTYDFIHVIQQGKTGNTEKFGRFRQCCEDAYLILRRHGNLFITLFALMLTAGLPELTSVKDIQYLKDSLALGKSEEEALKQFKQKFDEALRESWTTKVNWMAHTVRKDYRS

SMILES | Ki (PIK3CD (Human)) [nM] | Ki (PIK3CG (human)) [nM] | Ki (PIK3CB (Human)) [nM] | Ki (PIK3CA (human)) [nM]
CC1(C)OCCc2c1sc1c(N3CCOCC3)nc(-c3cnc(N)nc3)nc21 | 3 | 3 | 14 | 1
CC1(C)COC1c1cc2nc(-c3cnc(N)nc3)nc(N3CCOCC3)c2s1 (centres undefined) | 9 | 5 | 19 | 1
COC1(c2sc3c(N4CCOCC4)nc(-c4cnc(N)nc4)nc3c2C)COC1 | 7 | 7 | 27 | –
COC(C)(C)c1cc2nc(-c3cnc(N)nc3)nc(N3CCOCC3)c2s1 | 2 | 4 | 21 | –
